Measurements taken from PMC11640419, “New Synthetic Analogs of Natural 5Z,9Z-Dienoic Acids—Hybrid Molecules Based on Oleanolic Acid: Synthesis and Study of Antitumor Activity” (Cancers, 2024).

Assays:
Type in all cases: cell-based, human
Jurkat cells [1] = assay: MILLIPLEX MAP Early Apoptosis 7-plex Magnetic Bead Kit (Luminex); conditions: 6 h, at CC50 (anisomycin at IC50 0.192 μmol/L); for Akt protein level: AKT/PKB (S473); for Bad protein level: BAD (S112); for Bcl-2 protein level: BCL-2 (S70); for JNK protein level: JNK/SAPK1 (T183/Y185); for Casp 8 protein level: activated caspase-8; for Casp9 protein level: activated caspase-9; for p53 protein level: p53 (S46), apoptosis panel
From the text: (§1) In this study, we employed Luminex technology (MILLIPLEX® MAP 7-plex DNA Damage/Genotoxicity Magnetic Bead Kit and MILLIPLEX® MAP Early Apoptosis 7-plex Magnetic Bead Kit) to analyze protein analytes in Jurkat cell lysates. […] The Luminex xMAP intracellular protein assay is a multiplex multiparameter assay that employs a multiplex of fluorescent-labeled antibodies and magnetic particles to enhance the sensitivity, dynamic range, and accuracy of the analytical method. Luminex technology is employed to identify the proteins of interest present in each well. The mean fluorescence intensity (MFI) of each measured protein is then converted to its concentration (pg·mL^−1) using specialized software and standard curves.
(§2) The test substances were incubated with the cells at two concentrations, […], for a period of six hours. […] Following exposure, approximately 1 × 10⁶ cells from each well were transferred to 0.5-mL tubes (Eppendorf, Hamburg, Germany) and washed with PBS. Subsequently, the PBS was removed, 10 μL of lysis buffer (Cell Signaling Buffer and Detection Kit, Luminex, Austin, TX, USA) supplemented with 2 × protease and phosphatase inhibitors (Luminex, USA) was added, and the mixture was shaken for 30 s. A cocktail of fluorescence-encoded magnetic bead microspheres (MagPlex®, Luminex, USA) was resuspended and treated with ultrasound. Subsequently, 70 μL of this cocktail, 70 μL of protein standard, and 70 μL of the test sample were added to the wells of a 96-well microplate and incubated for 2 h at room temperature with stirring on an orbital shaker at 700–850 rpm. A magnetic plate was firmly attached to the bottom of a 96-well plate, and all wells were washed three times with 100 μL of wash buffer (Cell Signaling Buffer and Detection Kit, Luminex, USA) added to each well to remove unbound particles. Subsequently, 50 μL of […] to each well, and the samples were incubated for one hour at 4 °C on an orbital shaker set at 700–850 rpm. Subsequently, the samples were washed once more to remove any unbound antibodies. Afterwards, 70 μL of streptavidin-phycoerythrin (streptavidin-PE) (Luminex, USA) was added to each well and incubated for 30 min at room temperature on a shaker at 600 rpm. Subsequently, the samples were washed with streptavidin-PE and resuspended in 100 μL of wash buffer for a period of 2 min on a shaker at 800 rpm. The data were analyzed using the Milliplex Analyst 5.1 software (EMD Millipore, Billerica, MA, USA).

Jurkat cells [2] = assay: MILLIPLEX MAP 7-plex DNA Damage/Genotoxicity Magnetic Bead Kit (Luminex); conditions: 6 h, at CC50 (anisomycin at IC50 0.192 μmol/L); for ATR protein level: ATR (total); for Chk1 protein level: CHK1 (S345); for Chk2 protein level: CHK2 (T68); for H2A.X protein level: H2AX (S139); for MDM2 protein level: MDM2 (total); for p21 protein level: p21 (total); for p53 protein level: p53 (S15), genotoxicity panel
From the text: as §1, §2

Jurkat = assay: Cytotoxicity assay (7-AAD, flow cytometry); conditions: Jurkat cells; concentration used for the control compound; read-out: IC50
Method: (§3) The human cell lines Jurkat, K562, U937, and HEK293 were obtained from the European Collection of Authenticated Cell Cultures (ECACC) and subsequently cultured in accordance with established standard protocols and sterile techniques. […] Subsequently, the cells were seeded into 24-well plates at a density of 5 × 10^4 cells per well and incubated for 12 h (Jurkat, K562, U937) and 24 h (HEK293).
(§4) The viability of the cells was evaluated through the utilization of the 7-AAD (7-aminoactinomycin D) dye (eBioscience™, San Diego, CA, USA). Following a 24 h incubation period with the test substances, the cells were washed with phosphate-salt buffer (PBS) and centrifuged at 400× g for five minutes. […] Subsequently, all cell samples were subjected to analysis on a NovoCyte Penteon flow cytometer (Agilent, Santa Clara, CA, USA).

[3] = Cytotoxicity assay (7-AAD, flow cytometry); conditions: human, Jurkat cells; Jurkat, 24 h incubation
Method: as §3, §4

[4] = Cytotoxicity assay (7-AAD, flow cytometry); conditions: human
Method: The human cell lines Jurkat, K562, U937, and HEK293 were obtained from the European Collection of Authenticated Cell Cultures (ECACC) and subsequently cultured in accordance with established standard protocols and sterile techniques. The cells were maintained in RPMI 1640 (for Jurkat, K562, and U937) or DMEM (for HEK293) medium, both of which were supplemented with […], 10% FBS (Sigma, Kanagawa, Japan), and 100 units/mL penicillin-streptomycin (Sigma). Subsequently, the cells were seeded into 24-well plates at a density of 5 × 10^4 cells per well and incubated for 12 h (Jurkat, K562, U937) and 24 h (HEK293).
The viability of the cells was evaluated through the utilization of the 7-AAD (7-aminoactinomycin D) dye (eBioscience™, San Diego, CA, USA). Following a 24 h incubation period with the test substances, the cells were washed with phosphate-salt buffer (PBS) and centrifuged at 400× g for five minutes. The precipitate was resuspended in 200 μL of flow cytometry buffer (PBS without calcium and magnesium, 2.5% FBS) and incubated with a 1 mM 7-AAD dye solution for 15 min in the dark at room temperature. Subsequently, all cell samples were subjected to analysis on a NovoCyte Penteon flow cytometer (Agilent, Santa Clara, CA, USA).

Jurkat cells [5] = assay: Cell cycle analysis (MAK344 kit, flow cytometry); conditions: compound at CC50, 24 h
Method: Cell cycle analysis was performed using the MAK344 cell cycle assay kit (Sigma-Aldrich, St. Louis, MO, USA). Immediately after incubation with the tested compounds for 24 h, cells were gently washed with ice-cold phosphate-buffered saline (PBS) and centrifuged at 450× g for 5 min. After removing the supernatant, the cell precipitate was resuspended and fixed with 70% ethanol with continuous shaking on ice, and then stored at −18 degrees Celsius for 24 h. Prior to staining, the cells were washed with ice-cold PBS, and then 0.5 mL of the Cell Cycle Assay Kit working solution was added to the cell suspension at room temperature in the dark according to the working protocol. Samples were then analyzed on a NovoCyte Penteon flow cytometer (Agilent, USA).

[6] = HEK293 cells, HEK293, 24 h incubation
[7] = K562 cells, K562, 24 h incubation
[8] = U937 cells, U937, 24 h incubation

| SMILES | Akt protein level (Jurkat cells [1]) | Bad protein level (Jurkat cells [1]) | Bcl-2 protein level (Jurkat cells [1]) | JNK protein level (Jurkat cells [1]) | Casp 8 protein level (Jurkat cells [1]) | Casp9 protein level (Jurkat cells [1]) | p53 protein level (Jurkat cells [1]) | ATR protein level (Jurkat cells [2]) | Chk1 protein level (Jurkat cells [2]) | Chk2 protein level (Jurkat cells [2]) | H2A.X protein level (Jurkat cells [2]) | MDM2 protein level (Jurkat cells [2]) | p21 protein level (Jurkat cells [2]) | p53 protein level (Jurkat cells [2]) | CC50 at 24 h [3] [nM] | CC50 at 24 h [4, 6] [nM] | CC50 at 24 h [4, 7] [nM] | CC50 at 24 h [4, 8] [nM] | further results |
| --- | --- | --- | --- | --- | --- | --- | --- | --- | --- | --- | --- | --- | --- | --- | --- | --- | --- | --- | --- |
| COc1ccc(C[C@H]2NC[C@H](O)[C@H]2OC(C)=O)cc1 [Anisomycin, anisomycin, reference compound] | 129 % of control | 486 % of control | 3180 % of control | 357 % of control | 1229 % of control | 9353 % of control | 17 % of control | 440 % of control | 610 % of control | 20836 % of control | 1841 % of control | 367 % of control | 3727 % of control | 738 % of control |  |  |  |  | IC50 (Jurkat): 192 nM |
| CC(=O)O[C@H]1CC[C@@]2(C)C(CC[C@]3(C)C2CC=C2C4CC(C)(C)CC[C@]4(C(=O)Nc4ccnn4C)CC[C@]23C)C1(C)C (stereo partly drawn) [compound 7a] |  |  |  |  |  |  |  |  |  |  |  |  |  |  | 22100 ± 1960 | 58400 ± 6020 | 17700 ± 1390 | 14400 ± 1040 | cell population in the S-phase (Freq S) (Jurkat cells [5]): 48.89%; percentage of cells in the G2/M phase (Freq G2) (Jurkat cells [5]): 1.91% |
| CC[C@@]1(O)C(=O)OCc2c1cc1n(c2=O)Cc2cc3ccccc3nc2-1 [CPT, camptothecin, reference compound] | 196 % of control | 516 % of control | 580 % of control | 141 % of control | 209 % of control | 10289 % of control | 132 % of control | 263 % of control | 52 % of control | 5800 % of control | 957 % of control | 1417 % of control | 170654 % of control | 17285 % of control | 588 ± 46.2 | 692 ± 53.6 | 595 ± 54.4 | 522 ± 44.4 |  |
